Results from US20140357512A1, “HISTONE DEACETYLASE (HDAC) BIOMARKERS IN MULTIPLE MYELOMA” (priority 2013, published 2014).

System: human myeloma cell line MM.1S
Assay: Biological pathway analysis of SILAC biomarker peptides against pathway database (broadinstitute gsea)
Method: Once biomarker peptides are identified for a specific drug by the SILAC method, the biomarker peptides may be compared to peptides/proteins in a biological pathway database in order to identify major biological pathways or functions implicated by the drug's action. A preferred pathway analysis website is at www dot broadinstitute dot org/gsea/index dot jsp.
This example describes the biological pathway analysis that was performed on each of Compound A, Compound B, and Tubastatin A.
Once biomarker peptides were identified for a specific drug (either Compound A, Compound B, or Tubastatin A) by the SILAC method in Example 1, the biomarker peptides were compared to peptides/proteins in the biological pathway database at www dot broadinstitute dot org/gsea/index dot jsp in order to identify major biological pathways or functions implicated by the drug's action.

## O=C(NO)c1cnc(NC2(c3cccc(F)c3)CCCCC2)nc1 [Compound B, 2-((1-(3-fluorophenyl)cyclohexyl)amino)-N-hydroxypyrimidine-5-carboxamide]
Pathway_size 48
  Observed: number of genes in pathway REACTOME_PACKAGING_OF_TELOMERE_ENDS: 15
  Ratio observed/pathway size, REACTOME_PACKAGING_OF_TELOMERE_ENDS: 0.3125
Pathway_size 61
  Observed: number of genes in pathway REACTOME_RNA_POL_I_PROMOTER_OPENING: 15
  Ratio observed/pathway size, REACTOME_RNA_POL_I_PROMOTER_OPENING: 0.2459
Pathway_size 64
  Observed: number of genes in pathway REACTOME_DEPOSITION_OF_NEW_CENPA_CONTAINING_NUCLEOSOMES_AT_THE_CENTROMERE: 15
  Ratio observed/pathway size, REACTOME_DEPOSITION_OF_NEW_CENPA_CONTAINING_NUCLEOSOMES_AT_THE_CENTROMERE: 0.2344
Pathway_size 71
  Observed: number of genes in pathway REACTOME_MEIOTIC_SYNAPSIS: 16
  Ratio observed/pathway size, REACTOME_MEIOTIC_SYNAPSIS: 0.2254
Pathway_size 127
  Observed: number of genes in pathway MORF_PPP2CA: 18
  Ratio observed/pathway size, MORF_PPP2CA: 0.1417
Pathway_size 154
  Observed: number of genes in pathway MORF_NME2: 19
  Ratio observed/pathway size, MORF_NME2: 0.1234
Pathway_size 162
  Observed: number of genes in pathway MORF_NPM1: 20
  Ratio observed/pathway size, MORF_NPM1: 0.1235
Pathway_size 168
  Observed: number of genes in pathway MORF_CTBP1: 24
  Ratio observed/pathway size, MORF_CTBP1: 0.1429
Pathway_size 171
  Observed: number of genes in pathway MORF_G22P1: 23
  Ratio observed/pathway size, MORF_G22P1: 0.1345
Pathway_size 182
  Observed: number of genes in pathway MORF_RAD21: 20
  Ratio observed/pathway size, MORF_RAD21: 0.1099
Pathway_size 187
  Observed: number of genes in pathway PENG_LEUCINE_DEPRIVATION_DN: 21
  Ratio observed/pathway size, PENG_LEUCINE_DEPRIVATION_DN: 0.1123
Pathway_size 193
  Observed: number of genes in pathway MORF_DAP3: 21
  Ratio observed/pathway size, MORF_DAP3: 0.1088
Pathway_size 197
  Observed: number of genes in pathway MORF_ANP32B: 27
  Ratio observed/pathway size, MORF_ANP32B: 0.1371
Pathway_size 202
  Observed: number of genes in pathway MORF_SKP1A: 22
  Ratio observed/pathway size, MORF_SKP1A: 0.1089
Pathway_size 205
  Observed: number of genes in pathway MORF_AATF: 22
  Ratio observed/pathway size, MORF_AATF: 0.1073
Pathway_size 210
  Observed: number of genes in pathway MORF_ACP1: 22
  Ratio observed/pathway size, MORF_ACP1: 0.1048
Pathway_size 234
  Observed: number of genes in pathway MORF_XRCC5: 26
  Ratio observed/pathway size, MORF_XRCC5: 0.1111
Pathway_size 238
  Observed: number of genes in pathway MORF_UBE2I: 31
  Ratio observed/pathway size, MORF_UBE2I: 0.1303
Pathway_size 244
  Observed: number of genes in pathway MORF_EIF3S2: 25
  Ratio observed/pathway size, MORF_EIF3S2: 0.1025
Pathway_size 254
  Observed: number of genes in pathway MORF_HDAC1: 30
  Ratio observed/pathway size, MORF_HDAC1: 0.1181
Pathway_size 262
  Observed: number of genes in pathway MORF_DEK: 29
  Ratio observed/pathway size, MORF_DEK: 0.1107
Pathway_size 268
  Observed: number of genes in pathway MORF_RAN: 33
  Ratio observed/pathway size, MORF_RAN: 0.1231
Pathway_size 276
  Observed: number of genes in pathway MORF_BUB3: 27
  Ratio observed/pathway size, MORF_BUB3: 0.09783
Pathway_size 277
  Observed: number of genes in pathway MORF_SOD1: 23
  Ratio observed/pathway size, MORF_SOD1: 0.08303
Pathway_size 287
  Observed: number of genes in pathway MORF_CSNK2B: 27
  Ratio observed/pathway size, MORF_CSNK2B: 0.09408
Pathway_size 303
  Observed: number of genes in pathway MORF_GNB1: 30
  Ratio observed/pathway size, MORF_GNB1: 0.09901
Pathway_size 337
  Observed: number of genes in pathway PENG_GLUTAMINE_DEPRIVATION_DN: 25
  Ratio observed/pathway size, PENG_GLUTAMINE_DEPRIVATION_DN: 0.07418
Pathway_size 345
  Observed: number of genes in pathway MORF_RAD23A: 34
  Ratio observed/pathway size, MORF_RAD23A: 0.09855
Pathway_size 389
  Observed: number of genes in pathway HSIAO_HOUSEKEEPING_GENES: 36
  Ratio observed/pathway size, HSIAO_HOUSEKEEPING_GENES: 0.09255
Pathway_size 412
  Observed: number of genes in pathway REACTOME_CELL_CYCLE: 29
  Ratio observed/pathway size, REACTOME_CELL_CYCLE: 0.07039
Pathway_size 662
  Observed: number of genes in pathway CASORELLI_ACUTE_PROMYELOCYTIC_LEUKEMIA_DN: 31
  Ratio observed/pathway size, CASORELLI_ACUTE_PROMYELOCYTIC_LEUKEMIA_DN: 0.04683
Pathway_size 681
  Observed: number of genes in pathway KIM_BIPOLAR_DISORDER_OLIGODENDROCYTE_DENSITY_CORR_UP: 31
  Ratio observed/pathway size, KIM_BIPOLAR_DISORDER_OLIGODENDROCYTE_DENSITY_CORR_UP: 0.04552
Pathway_size 775
  Observed: number of genes in pathway BENPORATH_MYC_MAX_TARGETS: 35
  Ratio observed/pathway size, BENPORATH_MYC_MAX_TARGETS: 0.04516
Pathway_size 778
  Observed: number of genes in pathway PUJANA_CHEK2_PCC_NETWORK: 39
  Ratio observed/pathway size, PUJANA_CHEK2_PCC_NETWORK: 0.05013
Pathway_size 870
  Observed: number of genes in pathway GRADE_COLON_CANCER_UP: 40
  Ratio observed/pathway size, GRADE_COLON_CANCER_UP: 0.04598
Pathway_size 945
  Observed: number of genes in pathway MACROMOLECULAR_COMPLEX: 34
  Ratio observed/pathway size, MACROMOLECULAR_COMPLEX: 0.03598
Pathway_size 957
  Observed: number of genes in pathway LOPEZ_MBD_TARGETS: 37
  Ratio observed/pathway size, LOPEZ_MBD_TARGETS: 0.03866
Pathway_size 1102
  Observed: number of genes in pathway DANG_BOUND_BY_MYC: 46
  Ratio observed/pathway size, DANG_BOUND_BY_MYC: 0.04174
Pathway_size 1192
  Observed: number of genes in pathway INTRACELLULAR_ORGANELLE_PART: 47
  Ratio observed/pathway size, INTRACELLULAR_ORGANELLE_PART: 0.03943
Pathway_size 1197
  Observed: number of genes in pathway ORGANELLE_PART: 47
  Ratio observed/pathway size, ORGANELLE_PART: 0.03927
Pathway_size 1237
  Observed: number of genes in pathway BLALOCK_ALZHEIMERS_DISEASE_DN: 49
  Ratio observed/pathway size, BLALOCK_ALZHEIMERS_DISEASE_DN: 0.03961
Pathway_size 1368
  Observed: number of genes in pathway DODD_NASOPHARYNGEAL_CARCINOMA_DN: 39
  Ratio observed/pathway size, DODD_NASOPHARYNGEAL_CARCINOMA_DN: 0.02851
Pathway_size 1382
  Observed: number of genes in pathway DIAZ_CHRONIC_MEYLOGENOUS_LEUKEMIA_UP: 58
  Ratio observed/pathway size, DIAZ_CHRONIC_MEYLOGENOUS_LEUKEMIA_UP: 0.04197
Pathway_size 1428
  Observed: number of genes in pathway NUCLEUS: 40
  Ratio observed/pathway size, NUCLEUS: 0.02801
Pathway_size 1440
  Observed: number of genes in pathway PUJANA_ATM_PCC_NETWORK: 41
  Ratio observed/pathway size, PUJANA_ATM_PCC_NETWORK: 0.02847
Pathway_size 1651
  Observed: number of genes in pathway PUJANA_BRCA1_PCC_NETWORK: 68
  Ratio observed/pathway size, PUJANA_BRCA1_PCC_NETWORK: 0.04119
Pathway_size 1781
  Observed: number of genes in pathway GRAESSMANN_APOPTOSIS_BY_DOXORUBICIN_DN: 44
  Ratio observed/pathway size, […]_APOPTOSIS_BY_DOXORUBICIN_DN: 0.02471
Pathway_size 1972
  Observed: number of genes in pathway PILON_KLF1_TARGETS_DN: 45
  Ratio observed/pathway size, PILON_KLF1_TARGETS_DN: 0.02282
Pathway_size 2130
  Observed: number of genes in pathway CYTOPLASM: 50
  Ratio observed/pathway size, CYTOPLASM: 0.02347
Pathway_size 2939
  Observed: number of genes in pathway GGGCGGR_V$SP1_Q6: 53
  Ratio observed/pathway size, GGGCGGR_V$SP1_Q6: 0.01803
